Measured values: patent publication EP1175901A1, “PEROXISOME ACTIVATOR-RESPONSIVE RECEPTOR AGONISTS” (Kaneka Corporation, priority 1999, dated 2000)
Marks after values point to notes of the source that are not given here.

What was measured:
C57BL/6J mice [1] = assay: Lipid metabolism amelioration: plasma lipid concentrations in obese mice (Example 4); type: in vivo; conditions: after 16 hours without feed, 3 weeks test feed, 7wt% test oil (CLA 0.5wt%), soybean oil group = 100
Excerpt: 10-week old female C57BL/6J mice (from Clea Japan) were made obese by keeping for 3 weeks on a high-fat, high-sugar feed (made by Oriental Yeast) having the composition shown in Table 4. The mice were then divided into groups of 8, and were kept for a further 3 weeks on a test feed consisting of a fat-free growth-period-use standard mixed feed (AIN-93G, made by Oriental Yeast) with 2wt% soybean oil as an essential fatty acid source and either 7wt% of a test oil or 7wt% of a control oil added. After 3 weeks, the mice were fed for the last time and then not fed for 16 hours, after which the whole blood was collected from the mice using a heparinized syringe under ether anesthesia, and then the mice were dissected, with the adipose tissue around the kidneys, the adipose tissue around the ovaries, the liver, the kidneys and the spleen being extracted, and the weights thereof being measured. Each organ weight thus obtained was divided by the body weight to obtain the ratio of the organ weight to the body weight. The adipose tissue around the kidneys and the adipose tissue around the ovaries was evaluated as visceral adipose tissue. The collected blood was centrifuged for 15 minutes at 3000 rpm while cooling to obtain the plasma, and then the total cholesterol concentration was measured using Cholesterol C Test Wako (made by Wako Pure Chemical Industries), the neutral lipid concentration using Triglyceride G Test Wako (made by Wako Pure Chemical Industries), and the free fatty acid concentration using NEFA C Test Wako (made by Wako Pure Chemical Industries). The groups set up were a test group for which pomegranate seed oil prepared as in Example 1 was added to the feed (pomegranate seed oil group), a control group for which soybean oil was added to the feed (soybean oil group), and a comparative group for which high-DHA-containing fish oil (DHA content 20wt%, made by Harima Chemicals), which is known to have obesity ameliorating effects, was added to the feed (fish oil group). […]

mice = assay: Preliminary tests of CLA added to feed (liver enlargement, food intake); type: in vivo; conditions: 1wt% or more of CLA added to the feed
C57BL/6J mice [2] = assay: Visceral fat reduction: tissue weights in mice made obese on high-fat, high-sugar feed (Example 4); type: in vivo; conditions: obese female C57BL/6J mice, 3 weeks test feed, 7wt% test oil (CLA group: 0.5wt% CLA + 6.5wt% soybean oil)
Procedure: The visceral fat reduction effects or visceral fat accumulation suppression effects of the PPAR agonist and oil/fat composition of the present invention are evaluated by administering the candidate compound to a laboratory animal for a specific time period (e.g. 4 weeks), and then measuring the amount of visceral fat in the adipose tissue around the testes, the adipose tissue around the kidneys and the like.
10-week old female C57BL/6J mice (from Clea Japan) were made obese by keeping for 3 weeks on a high-fat, high-sugar feed (made by Oriental Yeast) having the composition shown in Table 4. The mice were then divided into groups of 8, and were kept for a further 3 weeks on a test feed consisting of a fat-free growth-period-use standard mixed feed (AIN-93G, made by Oriental Yeast) with 2wt% soybean oil as an essential fatty acid source and either 7wt% of a test oil or 7wt% of a control oil added. After 3 weeks, the mice were fed for the last time and then not fed for 16 hours, after which the whole blood was collected from the mice using a heparinized syringe under ether anesthesia, and then the mice were dissected, with the adipose tissue around the kidneys, the adipose tissue around the ovaries, the liver, the kidneys and the spleen being extracted, and the weights thereof being measured. Each organ weight thus obtained was divided by the body weight to obtain the ratio of the organ weight to the body weight. The adipose tissue around the kidneys and the adipose tissue around the ovaries was evaluated as visceral adipose tissue. The collected blood was centrifuged for 15 minutes at 3000 rpm while cooling to obtain the plasma, and then the total cholesterol concentration was measured using Cholesterol C Test Wako (made by Wako Pure Chemical Industries), the neutral lipid concentration using Triglyceride G Test Wako (made by Wako Pure Chemical Industries), and the free fatty acid concentration using NEFA C Test Wako (made by Wako Pure Chemical Industries). The groups set up were a test group for which pomegranate seed oil prepared as in Example 1 was added to the feed (pomegranate seed oil group), a control group for which soybean oil was added to the feed (soybean oil group), and a comparative group for which high-DHA-containing fish oil (DHA content 20wt%, made by Harima Chemicals), which is known to have obesity ameliorating effects, was added to the feed (fish oil group). Also set up was a group for which 6.5wt% of soybean oil and 0.5wt% of CLA (made by Kenko Tsusho, 70% purity) was added to the feed (CLA group). […] Moreover, also set up was a group that were fed a standard feed containing 9wt% of soybean oil throughout the test period right from the start (standard feed group, n=3). During the test period, the mice were allowed to drink water freely, but feeding was limited such that the intake was the same as for the soybean oil group.

PPARγ = biological target: T1, PPARγ (Homo sapiens, UniProt P37231); assay: PPARγ agonist activity, GAL4-PPARγ chimera / 4×UASg-luc luciferase reporter assay in CV-1 cells; conditions: for Relative activity (n=3): untreated control = 100
T1 sequence (P37231 204-505): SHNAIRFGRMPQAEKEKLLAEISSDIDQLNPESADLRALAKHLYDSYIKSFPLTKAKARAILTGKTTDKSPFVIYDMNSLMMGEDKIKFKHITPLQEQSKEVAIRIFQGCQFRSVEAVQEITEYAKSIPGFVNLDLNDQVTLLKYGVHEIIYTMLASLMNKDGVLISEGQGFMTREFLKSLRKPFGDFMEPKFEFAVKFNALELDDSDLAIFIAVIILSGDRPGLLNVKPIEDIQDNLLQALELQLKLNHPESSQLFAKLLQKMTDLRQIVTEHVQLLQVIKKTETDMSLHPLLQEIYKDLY
Procedure: Moreover, untreated control groups were established by exchanging with a culture medium prepared by diluting only DMSO with DMEM containing 10% activated-charcoal-treated bovine fetal serum. […] One day after the culture medium exchange, the culture medium was removed, the cells were washed with phosphate buffered saline (PBS), a cell solution was prepared using PicaGene cell solution Luc (made by Toyo Ink), 20µl of the cell solution was reacted with 100µl of a PicaGene luminescent substrate (made by Toyo Ink), and the luciferase activity was measured using a luminometer (Berthold Lumat LB9501) with the measurement time set to 10 seconds.
Letting the ratio of the measurement group (the group for which pM-PPAR and 4×UASg-luc were transfected) to the control group (the group for which pM and 4×UASg-luc were transfected) in the case of the untreated control groups be (a), and the ratio of the measurement group to the control group in the case of the ligand-reagent-added groups be (b), the PPARγ agonist activity caused by the ligand reagent was evaluated using the ratio (b)/(a). To avoid errors due to differences in the transfection efficiency between experiments, TZD (1µm) was put in as positive control groups and the values between the experiments were corrected.

conjugated linoleic acid [CLA] was tested, and the “Relative blood lipid concentration (mean, n=8): Free fatty acids” value (C57BL/6J mice [1]) was 71* % of soybean oil group, the “Relative blood lipid concentration (mean, n=8): Neutral lipids” value (C57BL/6J mice [1]) was 100 mg/dL and the “Relative blood lipid concentration (mean, n=8): Total cholesterol” value (C57BL/6J mice [1]) was 89 mg/dL. The food intake (mice) was “drop in the mice's food intake”, the liver enlargement (mice) was 1.4 times relative to a control and the “Ratio of tissue weight to body weight (mean, n=8): Fat around kidneys” value (C57BL/6J mice [2]; soybean oil group 0.304) was 0.240. The “Ratio of tissue weight to body weight (mean, n=8): Spleen” value (C57BL/6J mice [2]; soybean oil group 0.391) was 0.450, the “Ratio of tissue weight to body weight (mean, n=8): Fat around ovaries” value (C57BL/6J mice [2]; soybean oil group 0.839) was 0.650 and the “Ratio of tissue weight to body weight (mean, n=8): Kidneys” value (C57BL/6J mice [2]; soybean oil group 1.128) was 1.280. The “Ratio of tissue weight to body weight (mean, n=8): Visceral fat” value (C57BL/6J mice [2]; soybean oil group 1.144) was 0.890, the “Ratio of tissue weight to body weight (mean, n=8): Liver” value (C57BL/6J mice [2]; soybean oil group 4.454) was 4.920 and the “Relative activity (mean, n=3)” value (PPARγ; 20µM final fatty acid concentration, untreated control group = 100) was 125. For the same substance, the “Relative activity (n=3)” value (PPARγ; concentration 3 (µm [sic]), 3 µM) was 129, the “Relative activity (n=3)” value (PPARγ; concentration 9 (µm [sic]), 9 µM) was 109 and the “Relative activity (n=3)” value (PPARγ; concentration 30 (µm [sic]), 30 µM) was 110. The “Relative activity (n=3)” value (PPARγ; concentration 90 (µm [sic]), 90 µM) was 159 and the “Relative activity (n=3)” value (PPARγ; concentration 300 (µm [sic]), 300 µM) was 323.
